This is an account of results in patent US20030023101A1, “Method for production of maleic anhydride” (priority 2001, published 2003).

Series [1] can be described thus: Maximum dissolving concentration of fumaric acid in the solvent (Referential Example 2). The class given is physicochemical. Particulars: fumaric acid as solute in 80 g solvent, 20° C., insoluble = residue even at 0.01 g. The method, then: (§1) In a tightly closable glass vessel measuring 100 ml in inner volume and furnished with a lid, 80 g of a given solvent kept at a temperature of 20° C. was placed and stirred with a stirrer and meanwhile maleic acid or fumaric acid of the special reagent grade as defined in the paragraph covering the determination of maximum dissolution concentration was added to the stirred solvent. The state of solution consequently assumed was visually confirmed. When the solute left any residue behind in the solution even after one hour's stirring, the sample was reported as insoluble. When the residue of the solute was found, the confirmation of the maximum dissolving concentration mentioned above was repeated, with the quantity of addition per round decreased. The minimum quantity of addition was set at 0.01 g. Thus, the maximum quantity of dropwise addition (weight of solute) which was recognized to have given rise to no residue of elute was determined and computed as the maximum dissolution concentration in 80 g of a given solvent. Specifically, the magnitude found by the following formula,
(§2) Maximum dissolving concentration (% by weight)={Solute/(Solute+Solvent)}×100
(§3) is the maximum dissolving concentration contemplated by this invention. When the elute left any residue behind in the solution even at the minimum quantity of dropwise addition of 0.01 g ([…]), the sample was reported as insoluble. Incidentally, the maximum dissolution concentration was measured at a solution temperature of 20° C.

The nature of series [2]: Maximum dissolving concentration of organic solvent in water (Referential Example 1). As to conditions: solvent as solute in 80 g purified water, 20° C., visual observation. The class given is physicochemical. The method, then:
One species of organic solvent or a mixture of two or more species of solvent to be used in this invention was selected by the following method. In a tightly closable glass vessel measuring 100 ml in inner volume and furnished with a lid, 80 g of purified water kept at a temperature of 20° C. was placed and stirred with a stirrer and meanwhile a given organic solvent or solvent mixture was added dropwise to the stirred water. The state of solution consequently assumed after one hour's standing was visually observed. When any residue of the solute was found in the solution, the confirmation of the solubility mentioned above was repeated, with the quantity of dropwise addition per round decreased. The minimum quantity of the organic solvent or the solvent mixture as the solute to be used for the dropwise addition was set at 0.02 g. […] Specifically, the magnitude found by the following formula,
as §2
is the maximum dissolving concentration contemplated by this invention. […] The present example concerns computation of the maximum dissolving concentration of a given solute in 80 g of a solvent in accordance with the formula mentioned above. The maximum dissolving concentration was determined at a solution temperature of 20° C. Incidentally, when two or more species of organic solvent are mixed and used in the distillation for azeotropic dehydration, the maximum dissolving concentration of the mixture is determined by the method described above.

The nature of series [3]: Maximum dissolving concentration of maleic acid in the solvent (Referential Example 2). The class given is physicochemical. Particulars: maleic acid as solute in 80 g solvent, 20° C., insoluble = residue even at 0.01 g. The method, then: as §1, §2, §3
For series [4] the following is noted: 20° C., normal pressure (1013 hPa); Chemical Handbook (Maruzen), Beilstein Online; cited from earlier work.

Regarding `Cc1ccccc1C` [o-Xylene, o-xylene], the “Maximum dissolving concentration in solvent, Fumaric acid” value in series [1] is on record as “Insoluble”; in series [1] (listed as o-xylene), “did not dissolve”. The “Maximum dissolving concentration in water” value in series [2] is on record as 0.02 % by weight; in series [2] (listed as o-xylene), “low solubility in water”. Moreover, the “Maximum dissolving concentration in solvent, Maleic acid” value in series [3] is listed as “Insoluble”; in series [3] (listed as o-xylene), “did not dissolve”.

With `CCCCCOC(C)=O` [amyl acetate], the “Maximum dissolving concentration of the azeotropic solvent (1) in water” value (“Maximum dissolving concentration … (1) in water” below) in series [4] is 0.25 % by weight.

For the molecule `CCCCC(CC)CO` (stereo not drawn) [2-ethyl-1-hexnol], in series [4], the “Maximum dissolving concentration … (1) in water” value is 0.10 % by weight.

As for `CCC(=O)CC` [3-pentanone], the “Maximum dissolving concentration … (1) in water” value in series [4] was 4.6 % by weight.

As to `CC(=O)CC(C)C` [MIBK, methyl isobutylketone], the “Maximum dissolving concentration in solvent, Fumaric acid” value in series [1] is listed as 0.14 % by weight. Further, in series [2], the “Maximum dissolving concentration in water” value turned out to be 1.85 % by weight. The “Maximum dissolving concentration in solvent, Maleic acid” value in series [3] is given as 4.14 % by weight. Besides, in series [4], the “Maximum dissolving concentration … (1) in water” value is listed as 1.91 % by weight.

For the molecule `CCCC(=O)CC` [3-hexnaone], the “Maximum dissolving concentration … (1) in water” value in series [4] is 1.57 % by weight.

In the case of `CCCCCC(C)=O` [2-heptanone], the “Maximum dissolving concentration … (1) in water” value in series [4] is listed as 0.44 % by weight.

Turning to `CCCCC(C)=O` [2-hexanone], the “Maximum dissolving concentration … (1) in water” value in series [4] is recorded as 1.75 % by weight.

Regarding `CC(C)C(=O)C(C)C` [DIPK, diisopropylketone], the “Maximum dissolving concentration in solvent, Fumaric acid” value in series [1] is reported as 0.02 % by weight. In addition, the “Maximum dissolving concentration in water” value in series [2] turned out to be 0.41 % by weight. For the same molecule, the “Maximum dissolving concentration in solvent, Maleic acid” value in series [3] is recorded as 1.22 % by weight. Further, the “Maximum dissolving concentration … (1) in water” value in series [4] is 0.43 % by weight.

Regarding `CC(C)CC(=O)CC(C)C` [DIBK, diisobutyl ketone], the “Maximum dissolving concentration in solvent, Fumaric acid” value in series [1] is reported as “Insoluble”. Further, the “Maximum dissolving concentration in water” value in series [2] is given as 0.05 % by weight. Besides, in series [3], the “Maximum dissolving concentration in solvent, Maleic acid” value was 0.62 % by weight.

Regarding `C=CCOC(C)=O` [allyl acetate], the “Maximum dissolving concentration … (1) in water” value in series [4] was 2.8 % by weight.
